Test system: rice
Test: Low temperature assay on rice seedlings
Format: in vivo
Protocol: According to a low temperature assay, we measured parameters including plant height, number of leaf, area of leaf, number of tiller, weight of root at low temperature to completely determine effects of the natural brassinolide analogues on the resistance to low temperature of a plant.
The natural brassinolide analogues, BR1, BR2, BR3, BR4, BR5 and BR6, used herein, were those prepared by the method of Example 1. Respectively the analogues were dissolved into 95% (V/V) ethanol solution, and then diluted with pure water to 1 mg/L, 0.1 mg/L, 0.01 mg/L, 0.001 mg/L and 0.0001 mg/L. In addition, pure water was used as a control.
After rice seeds were disinfected by using 5% sodium hypochlorite solution treatment, they were rinsed with distilled water until their pH>7, placed into a petri dish in a dark incubator, and cultured by using water at 30° C.±2° C. for 9 days. Then respectively the nine-day-old etiolated seedlings of rice were immersed in the above solutions containing different concentrations of the natural brassinolide analogues or pure water, and cultured at the temperature of 1° C., 2° C., 3° C., 4° C. and 5° C. for 24 hr. The parameters including plant height, area of leaf and weight of root after 3, 6, 9 and 12 days and number of leaf and number of tiller after 12 days were measured.

CC(C)[C@H](C)[C@@H](O)[C@H](O)[C@@H](C)[C@H]1CCC2C3CC(=O)C4C[C@H](O)CC[C@]4(C)C3CC[C@@]21C (stereo partly shown) [BR4]
Height (0.01 mg/l, 3 °C, 9 days): 7.5 cm
Weight of root (0.01 mg/l, 3 °C, 9 days): 2.9 g
Area of leaf (0.01 mg/l, 3 °C, 12 days): 13.2 cm^2
Height (0.01 mg/l, 3 °C, 12 days): 7.8 cm
Number of leaf (0.01 mg/l, 3 °C, 12 days): 3
Number of tiller (0.01 mg/l, 3 °C, 12 days): 2
Weight of root (0.01 mg/l, 3 °C, 12 days): 2.9 g
Area of leaf (0.01 mg/l, 4 °C, 3 days): 10.8 cm^2
Height (0.01 mg/l, 4 °C, 3 days): 7 cm
Weight of root (0.01 mg/l, 4 °C, 3 days): 2.5 g
Area of leaf (0.01 mg/l, 4 °C, 6 days): 12.4 cm^2
Height (0.01 mg/l, 4 °C, 6 days): 7.4 cm
Weight of root (0.01 mg/l, 4 °C, 6 days): 2.7 g
Area of leaf (0.01 mg/l, 4 °C, 9 days): 13 cm^2
Height (0.01 mg/l, 4 °C, 9 days): 7.7 cm
Weight of root (0.01 mg/l, 4 °C, 9 days): 2.9 g
Area of leaf (0.01 mg/l, 4 °C, 12 days): 13.5 cm^2
Height (0.01 mg/l, 4 °C, 12 days): 7.8 cm
Number of leaf (0.01 mg/l, 4 °C, 12 days): 3
Number of tiller (0.01 mg/l, 4 °C, 12 days): 2
Weight of root (0.01 mg/l, 4 °C, 12 days): 3.0 g
Area of leaf (0.01 mg/l, 5 °C, 3 days): 10.3 cm^2
Height (0.01 mg/l, 5 °C, 3 days): 7.2 cm
Weight of root (0.01 mg/l, 5 °C, 3 days): 2.8 g
Area of leaf (0.01 mg/l, 5 °C, 6 days): 13.1 cm^2
Height (0.01 mg/l, 5 °C, 6 days): 7.4 cm
Weight of root (0.01 mg/l, 5 °C, 6 days): 3.0 g
Area of leaf (0.01 mg/l, 5 °C, 9 days): 16.4 cm^2
Height (0.01 mg/l, 5 °C, 9 days): 7.8 cm
Weight of root (0.01 mg/l, 5 °C, 9 days): 3.4 g
Area of leaf (0.01 mg/l, 5 °C, 12 days): 17 cm^2
Height (0.01 mg/l, 5 °C, 12 days): 8.2 cm
Number of leaf (0.01 mg/l, 5 °C, 12 days): 4
Number of tiller (0.01 mg/l, 5 °C, 12 days): 3
Weight of root (0.01 mg/l, 5 °C, 12 days): 3.9 g
Area of leaf (0.1 mg/l, 1 °C, 3 days): 10 cm^2
Height (0.1 mg/l, 1 °C, 3 days): 7.1 cm
Weight of root (0.1 mg/l, 1 °C, 3 days): 2.8 g
Area of leaf (0.1 mg/l, 1 °C, 6 days): 11 cm^2
Height (0.1 mg/l, 1 °C, 6 days): 7.2 cm
Weight of root (0.1 mg/l, 1 °C, 6 days): 2.9 g
Area of leaf (0.1 mg/l, 1 °C, 9 days): 12.1 cm^2
Height (0.1 mg/l, 1 °C, 9 days): 7.3 cm
Weight of root (0.1 mg/l, 1 °C, 9 days): 3.3 g
Area of leaf (0.1 mg/l, 1 °C, 12 days): 13.1 cm^2
Height (0.1 mg/l, 1 °C, 12 days): 7.3 cm
Number of leaf (0.1 mg/l, 1 °C, 12 days): 3
Number of tiller (0.1 mg/l, 1 °C, 12 days): 3
Weight of root (0.1 mg/l, 1 °C, 12 days): 3.6 g
Area of leaf (0.1 mg/l, 2 °C, 3 days): 10.2 cm^2
Height (0.1 mg/l, 2 °C, 3 days): 7.1 cm
Weight of root (0.1 mg/l, 2 °C, 3 days): 2.8 g
Area of leaf (0.1 mg/l, 2 °C, 6 days): 11.2 cm^2
Height (0.1 mg/l, 2 °C, 6 days): 7.1 cm
Weight of root (0.1 mg/l, 2 °C, 6 days): 3.1 g
Area of leaf (0.1 mg/l, 2 °C, 9 days): 12.6 cm^2
Height (0.1 mg/l, 2 °C, 9 days): 7.3 cm
Weight of root (0.1 mg/l, 2 °C, 9 days): 3.1 g
Area of leaf (0.1 mg/l, 2 °C, 12 days): 13.2 cm^2
Height (0.1 mg/l, 2 °C, 12 days): 7.4 cm
Number of leaf (0.1 mg/l, 2 °C, 12 days): 3
Number of tiller (0.1 mg/l, 2 °C, 12 days): 3
Weight of root (0.1 mg/l, 2 °C, 12 days): 3.2 g
Area of leaf (0.1 mg/l, 3 °C, 3 days): 10.5 cm^2
Height (0.1 mg/l, 3 °C, 3 days): 7.3 cm
Weight of root (0.1 mg/l, 3 °C, 3 days): 2.5 g
Area of leaf (0.1 mg/l, 3 °C, 6 days): 12 cm^2
Height (0.1 mg/l, 3 °C, 6 days): 7.4 cm
Weight of root (0.1 mg/l, 3 °C, 6 days): 2.7 g
Area of leaf (0.1 mg/l, 3 °C, 9 days): 12.1 cm^2
Height (0.1 mg/l, 3 °C, 9 days): 7.8 cm
Weight of root (0.1 mg/l, 3 °C, 9 days): 2.7 g
Area of leaf (0.1 mg/l, 3 °C, 12 days): 13.4 cm^2
Height (0.1 mg/l, 3 °C, 12 days): 7.9 cm
Number of leaf (0.1 mg/l, 3 °C, 12 days): 3
Number of tiller (0.1 mg/l, 3 °C, 12 days): 2
Weight of root (0.1 mg/l, 3 °C, 12 days): 2.9 g
Area of leaf (0.1 mg/l, 4 °C, 3 days): 10.6 cm^2
Height (0.1 mg/l, 4 °C, 3 days): 7.3 cm
Weight of root (0.1 mg/l, 4 °C, 3 days): 2.5 g
Area of leaf (0.1 mg/l, 4 °C, 6 days): 12 cm^2
Height (0.1 mg/l, 4 °C, 6 days): 7.4 cm
Weight of root (0.1 mg/l, 4 °C, 6 days): 2.6 g
Area of leaf (0.1 mg/l, 4 °C, 9 days): 13.2 cm^2
Height (0.1 mg/l, 4 °C, 9 days): 7.8 cm
Weight of root (0.1 mg/l, 4 °C, 9 days): 2.9 g
Area of leaf (0.1 mg/l, 4 °C, 12 days): 13.4 cm^2
Height (0.1 mg/l, 4 °C, 12 days): 8 cm
Number of leaf (0.1 mg/l, 4 °C, 12 days): 3
Number of tiller (0.1 mg/l, 4 °C, 12 days): 2
Weight of root (0.1 mg/l, 4 °C, 12 days): 3.1 g
Area of leaf (0.1 mg/l, 5 °C, 3 days): 11 cm^2
Height (0.1 mg/l, 5 °C, 3 days): 7.4 cm
Weight of root (0.1 mg/l, 5 °C, 3 days): 2.9 g
Area of leaf (0.1 mg/l, 5 °C, 6 days): 12.1 cm^2
Height (0.1 mg/l, 5 °C, 6 days): 7.5 cm
Weight of root (0.1 mg/l, 5 °C, 6 days): 3.1 g
Area of leaf (0.1 mg/l, 5 °C, 9 days): 16.2 cm^2
Height (0.1 mg/l, 5 °C, 9 days): 8 cm
Weight of root (0.1 mg/l, 5 °C, 9 days): 3.5 g
Area of leaf (0.1 mg/l, 5 °C, 12 days): 17.8 cm^2
Height (0.1 mg/l, 5 °C, 12 days): 8.1 cm
Number of leaf (0.1 mg/l, 5 °C, 12 days): 3
Number of tiller (0.1 mg/l, 5 °C, 12 days): 2
Weight of root (0.1 mg/l, 5 °C, 12 days): 4.1 g
Area of leaf (1 mg/l, 1 °C, 3 days): 10 cm^2
Height (1 mg/l, 1 °C, 3 days): 6.8 cm
Weight of root (1 mg/l, 1 °C, 3 days): 2.6 g
Area of leaf (1 mg/l, 1 °C, 6 days): 11 cm^2
Height (1 mg/l, 1 °C, 6 days): 7 cm
Weight of root (1 mg/l, 1 °C, 6 days): 3.1 g
Area of leaf (1 mg/l, 1 °C, 9 days): 12.4 cm^2
Height (1 mg/l, 1 °C, 9 days): 7.1 cm
Weight of root (1 mg/l, 1 °C, 9 days): 3.2 g
Area of leaf (1 mg/l, 1 °C, 12 days): 13 cm^2
Height (1 mg/l, 1 °C, 12 days): 7.7 cm
Number of leaf (1 mg/l, 1 °C, 12 days): 3
Number of tiller (1 mg/l, 1 °C, 12 days): 3
Weight of root (1 mg/l, 1 °C, 12 days): 3.7 g
Area of leaf (1 mg/l, 2 °C, 3 days): 10.1 cm^2
Height (1 mg/l, 2 °C, 3 days): 7 cm
Weight of root (1 mg/l, 2 °C, 3 days): 2.55 g
Area of leaf (1 mg/l, 2 °C, 6 days): 11.7 cm^2
Height (1 mg/l, 2 °C, 6 days): 7.2 cm
Weight of root (1 mg/l, 2 °C, 6 days): 3.0 g
Area of leaf (1 mg/l, 2 °C, 9 days): 12 cm^2
Height (1 mg/l, 2 °C, 9 days): 7.4 cm
Weight of root (1 mg/l, 2 °C, 9 days): 3.2 g
Area of leaf (1 mg/l, 2 °C, 12 days): 13 cm^2
Height (1 mg/l, 2 °C, 12 days): 8 cm
Number of leaf (1 mg/l, 2 °C, 12 days): 3
Number of tiller (1 mg/l, 2 °C, 12 days): 3
Weight of root (1 mg/l, 2 °C, 12 days): 3.7 g
Area of leaf (1 mg/l, 3 °C, 3 days): 10.4 cm^2
Height (1 mg/l, 3 °C, 3 days): 7 cm
Weight of root (1 mg/l, 3 °C, 3 days): 2.5 g
Area of leaf (1 mg/l, 3 °C, 6 days): 12 cm^2
Height (1 mg/l, 3 °C, 6 days): 7.5 cm
Weight of root (1 mg/l, 3 °C, 6 days): 2.6 g
Area of leaf (1 mg/l, 3 °C, 9 days): 12 cm^2
Height (1 mg/l, 3 °C, 9 days): 7.7 cm
Weight of root (1 mg/l, 3 °C, 9 days): 2.6 g
Area of leaf (1 mg/l, 3 °C, 12 days): 13.2 cm^2
Height (1 mg/l, 3 °C, 12 days): 8.1 cm
Number of leaf (1 mg/l, 3 °C, 12 days): 3
Number of tiller (1 mg/l, 3 °C, 12 days): 2
Weight of root (1 mg/l, 3 °C, 12 days): 2.9 g
Area of leaf (1 mg/l, 4 °C, 3 days): 10.7 cm^2
Height (1 mg/l, 4 °C, 3 days): 7.3 cm
Weight of root (1 mg/l, 4 °C, 3 days): 2.5 g
Area of leaf (1 mg/l, 4 °C, 6 days): 12 cm^2
Height (1 mg/l, 4 °C, 6 days): 7.5 cm
Weight of root (1 mg/l, 4 °C, 6 days): 2.7 g
Area of leaf (1 mg/l, 4 °C, 9 days): 13.2 cm^2
Height (1 mg/l, 4 °C, 9 days): 7.8 cm
Weight of root (1 mg/l, 4 °C, 9 days): 3.0 g
Area of leaf (1 mg/l, 4 °C, 12 days): 14 cm^2
Height (1 mg/l, 4 °C, 12 days): 8.2 cm
Number of leaf (1 mg/l, 4 °C, 12 days): 3
Number of tiller (1 mg/l, 4 °C, 12 days): 2
Weight of root (1 mg/l, 4 °C, 12 days): 3.2 g
Area of leaf (1 mg/l, 5 °C, 3 days): 11.1 cm^2
Height (1 mg/l, 5 °C, 3 days): 7.4 cm
Weight of root (1 mg/l, 5 °C, 3 days): 2.9 g
Area of leaf (1 mg/l, 5 °C, 6 days): 13 cm^2
Height (1 mg/l, 5 °C, 6 days): 7.4 cm
Weight of root (1 mg/l, 5 °C, 6 days): 3.5 g
Area of leaf (1 mg/l, 5 °C, 9 days): 18 cm^2
Height (1 mg/l, 5 °C, 9 days): 8.1 cm
Weight of root (1 mg/l, 5 °C, 9 days): 3.7 g
Area of leaf (1 mg/l, 5 °C, 12 days): 20 cm^2
Height (1 mg/l, 5 °C, 12 days): 8.3 cm
Number of leaf (1 mg/l, 5 °C, 12 days): 3
Number of tiller (1 mg/l, 5 °C, 12 days): 2
Weight of root (1 mg/l, 5 °C, 12 days): 4.5 g

— US9326506B2, “Preparation method, agricultural composition and applications of natural brassinolide analogs” (CHENGDU NEWSUN CROPSCIENCE CO., LTD, priority 2012, dated 2016)
